Assay [1] has as its target T1, PI4KIIIA (Homo sapiens, UniProt P42356).
T1 construct: made in house; host or cells: COS-7 cells, transient transfection, anti-HA immunoprecipitate on protein G Sepharose beads
As to the kind of experiment: PI4KIIIA kinase assay. In kind it is biochemical. The procedure: In the assays described here, p110α-p85 complex and p110γ were acquired from Millipore. Assays were performed with Lα-phosphatidylinositol (Avanti) as described in Knight et al. Nat Protoc. 2007; 2 (10):2459-66. Inhibitor series were prepared 10% DMSO as 5× stocks for the assay. Assays of HsVps34 were performed as described in Knight et al, except that the final assay buffer composition used was changed to 20 mM HEPES 7.5, 100 mM NaCl, 3 mM MgCl, 1 mg/mL PI and 44 nM hvps34 was used in the assay. […] COS-7 cells were cultured in 10 cm dishes and transfected at 70% confluence with 10 μg of plasmid DNA (HA-tagged bovine PI4KIIIβ, HA-tagged human PI4KIIIα) using Lipofectamine 2000 and 5 ml Opti-MEM following the manufacturer's instructions. After 5 hours the transfection medium was replaced with 10 ml complete DMEM. 36 hrs post transfection, cells were washed once with 5 ml PBS (pH 7.4) and lysed in 1 ml of lysis buffer (1) on ice. Lysates were collected by scraping and after 15 min they were centrifuged at 13,000 rpm for 10 min. To the lysates was added 200 μl of protein G Sepharose 4 fast flow beads that were prewashed with PBS and lysis buffer and 2 μg of anti-HA antibody. The tubes were then incubated overnight at 4 degrees C. in a tube rotator. The Sepharose beads in the lysate were washed twice with 150 mM NaCl in RIPA buffer, twice with RIPA buffer and once with kinase buffer (50 mM Tris/HCl, pH 7.5, 20 mM MgCl2, 1 mM EGTA, 1 mM PtdIns, 0.4% Triton X-100, 0.5 mg/mL BSA) and finally the beads were resuspended in 200 μL kinase buffer. Kinase reactions were run in a mixture of 45 μL of PI buffer (1 mM PI in kinase buffer), 10 μL of immunoprecipitated beads, 2 µL of inhibitors (dissolved and diluted in DMSO) or DMSO and 5 μL of [γ-^32P]-ATP (1 mM and 2 μCi/tube). The immunoprecipitates in PI buffer were pre-incubated with the drugs for 20 min prior the initiation of kinase reaction by adding ATP and the reactions were carried out for 30 min in 15 ml polypropolyne tubes. […] Samples were counted in a scintillation beta counter after adding 5 ml of Instafluor (Perkin-Elmer). […]

Assay [2] deals with T2, PI3K p110a (Homo sapiens, UniProt P42336).
T2 construct: purchased Millipore
T2 sequence (P42336 whole entry): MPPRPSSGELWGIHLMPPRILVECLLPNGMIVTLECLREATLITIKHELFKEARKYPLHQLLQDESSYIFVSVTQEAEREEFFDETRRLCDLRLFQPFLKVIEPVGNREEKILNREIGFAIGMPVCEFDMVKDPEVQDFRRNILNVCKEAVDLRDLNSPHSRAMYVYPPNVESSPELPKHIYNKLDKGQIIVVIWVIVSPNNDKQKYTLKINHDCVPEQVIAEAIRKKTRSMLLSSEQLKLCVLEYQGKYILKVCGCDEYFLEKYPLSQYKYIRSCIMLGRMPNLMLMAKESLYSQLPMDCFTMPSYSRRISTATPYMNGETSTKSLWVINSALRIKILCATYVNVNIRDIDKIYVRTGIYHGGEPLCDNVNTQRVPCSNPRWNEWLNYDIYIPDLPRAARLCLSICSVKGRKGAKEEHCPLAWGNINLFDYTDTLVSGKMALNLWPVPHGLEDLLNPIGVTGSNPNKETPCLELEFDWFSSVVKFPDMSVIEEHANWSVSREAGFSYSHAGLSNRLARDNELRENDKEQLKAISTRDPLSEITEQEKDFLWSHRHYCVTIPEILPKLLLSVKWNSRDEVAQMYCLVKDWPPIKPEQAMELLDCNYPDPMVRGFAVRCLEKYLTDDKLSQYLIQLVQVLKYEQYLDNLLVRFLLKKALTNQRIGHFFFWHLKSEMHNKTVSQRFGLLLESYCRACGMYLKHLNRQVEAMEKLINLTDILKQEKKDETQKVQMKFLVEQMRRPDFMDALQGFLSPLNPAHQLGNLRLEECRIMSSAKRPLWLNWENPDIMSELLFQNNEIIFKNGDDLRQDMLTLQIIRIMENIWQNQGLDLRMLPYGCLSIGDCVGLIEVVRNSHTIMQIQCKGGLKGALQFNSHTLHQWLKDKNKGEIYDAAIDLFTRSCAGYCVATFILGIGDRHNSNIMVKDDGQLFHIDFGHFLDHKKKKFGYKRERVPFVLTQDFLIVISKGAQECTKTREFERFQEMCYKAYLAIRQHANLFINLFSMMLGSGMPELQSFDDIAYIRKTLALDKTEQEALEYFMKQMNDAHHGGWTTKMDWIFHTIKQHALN
T2 sequence (P27986 whole entry partner): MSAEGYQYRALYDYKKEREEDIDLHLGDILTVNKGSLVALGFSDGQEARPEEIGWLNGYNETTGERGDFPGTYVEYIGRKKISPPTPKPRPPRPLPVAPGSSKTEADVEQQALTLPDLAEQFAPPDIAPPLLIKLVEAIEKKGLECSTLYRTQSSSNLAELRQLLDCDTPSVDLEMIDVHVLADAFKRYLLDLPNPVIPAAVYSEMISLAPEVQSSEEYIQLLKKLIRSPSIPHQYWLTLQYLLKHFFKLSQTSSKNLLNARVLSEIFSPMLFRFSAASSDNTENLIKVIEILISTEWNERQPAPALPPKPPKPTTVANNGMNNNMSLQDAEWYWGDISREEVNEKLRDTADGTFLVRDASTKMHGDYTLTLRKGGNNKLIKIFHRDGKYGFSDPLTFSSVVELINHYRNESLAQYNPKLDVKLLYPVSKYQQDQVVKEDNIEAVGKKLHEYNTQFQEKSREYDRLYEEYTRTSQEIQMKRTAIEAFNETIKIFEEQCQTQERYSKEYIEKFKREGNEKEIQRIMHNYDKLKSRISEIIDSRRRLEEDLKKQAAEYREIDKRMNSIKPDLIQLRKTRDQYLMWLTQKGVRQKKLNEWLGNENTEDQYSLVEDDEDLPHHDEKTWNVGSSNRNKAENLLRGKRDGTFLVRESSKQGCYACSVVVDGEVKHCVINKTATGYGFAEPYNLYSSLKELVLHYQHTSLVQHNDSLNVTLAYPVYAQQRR
As to the kind of experiment: PI3K p110a kinase assay. It is filed as biochemical. On the procedure:
In the assays described here, p110α-p85 complex and p110γ were acquired from Millipore. Assays were performed with Lα-phosphatidylinositol (Avanti) as described in Knight et al. Nat Protoc. […] Inhibitor series were prepared 10% DMSO as 5× stocks for the assay. […] COS-7 cells were cultured in 10 cm dishes and transfected at 70% confluence with 10 μg of plasmid DNA (HA-tagged bovine PI4KIIIβ, HA-tagged human PI4KIIIα) using Lipofectamine 2000 and 5 ml Opti-MEM following the manufacturer's instructions. After 5 hours the transfection medium was replaced with 10 ml complete DMEM. 36 hrs post transfection, cells were washed once with 5 ml PBS (pH 7.4) and lysed in 1 ml of lysis buffer (1) on ice. […] To the lysates was added 200 μl of protein G Sepharose 4 fast flow beads that were prewashed with PBS and lysis buffer and 2 μg of anti-HA antibody. The tubes were then incubated overnight at 4 degrees C. in a tube rotator. […] Kinase reactions were run in a mixture of 45 μL of PI buffer (1 mM PI in kinase buffer), 10 μL of immunoprecipitated beads, 2 µL of inhibitors (dissolved and diluted in DMSO) or DMSO and 5 μL of [γ-^32P]-ATP (1 mM and 2 μCi/tube). […] Samples were counted in a scintillation beta counter after adding 5 ml of Instafluor (Perkin-Elmer). […]

For assay [3], the target named is T3, PI3K p110g (Homo sapiens, UniProt P48736).
T3 construct: purchased Millipore
T3 sequence (P48736 whole entry): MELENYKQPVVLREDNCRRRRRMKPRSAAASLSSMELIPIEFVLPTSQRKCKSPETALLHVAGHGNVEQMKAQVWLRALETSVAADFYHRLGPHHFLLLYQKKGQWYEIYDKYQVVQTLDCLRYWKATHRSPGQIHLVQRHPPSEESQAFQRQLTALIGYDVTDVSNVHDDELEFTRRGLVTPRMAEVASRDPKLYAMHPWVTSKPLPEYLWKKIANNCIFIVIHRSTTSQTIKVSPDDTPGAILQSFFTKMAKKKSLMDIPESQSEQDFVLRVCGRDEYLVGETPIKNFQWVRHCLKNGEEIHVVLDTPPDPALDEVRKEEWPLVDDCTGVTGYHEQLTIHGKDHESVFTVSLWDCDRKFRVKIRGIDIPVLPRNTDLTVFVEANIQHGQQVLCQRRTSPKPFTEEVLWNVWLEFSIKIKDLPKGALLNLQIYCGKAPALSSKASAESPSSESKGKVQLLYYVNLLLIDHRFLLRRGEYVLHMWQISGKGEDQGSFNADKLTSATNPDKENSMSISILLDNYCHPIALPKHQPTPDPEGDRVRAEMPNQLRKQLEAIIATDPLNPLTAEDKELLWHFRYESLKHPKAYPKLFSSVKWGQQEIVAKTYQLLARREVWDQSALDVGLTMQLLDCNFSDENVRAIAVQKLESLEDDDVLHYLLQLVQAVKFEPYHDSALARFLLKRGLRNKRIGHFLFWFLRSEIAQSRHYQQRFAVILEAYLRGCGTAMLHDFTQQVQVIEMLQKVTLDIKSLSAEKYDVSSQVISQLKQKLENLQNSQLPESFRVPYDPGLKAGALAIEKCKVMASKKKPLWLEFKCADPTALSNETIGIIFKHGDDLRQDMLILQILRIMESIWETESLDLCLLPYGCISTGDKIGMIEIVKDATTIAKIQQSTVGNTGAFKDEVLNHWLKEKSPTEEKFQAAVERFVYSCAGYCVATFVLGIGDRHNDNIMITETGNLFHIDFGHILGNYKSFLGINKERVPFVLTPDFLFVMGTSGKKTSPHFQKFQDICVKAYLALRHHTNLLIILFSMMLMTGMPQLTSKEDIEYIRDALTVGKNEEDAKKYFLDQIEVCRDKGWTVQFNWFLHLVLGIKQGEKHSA
In words: PI3K p110g kinase assay. In kind it is biochemical.

Assay [4] has as its system HCV genotype 2a. In words: microbe, parasite or virus in culture. It is filed as cell-based. The following applies: Hepatitis C virus, Huh7.5, read-out: HCV2a EC50.
In assay [5] the test system is HRV. As to the kind of experiment: Rhinovirus antiviral assay. The following applies: Human rhinovirus sp. In kind it is cell-based.

Each structure is given as a SMILES string. pEC50, pIC50: −log10 of the molar value.

T1 sequence (P42356 whole entry): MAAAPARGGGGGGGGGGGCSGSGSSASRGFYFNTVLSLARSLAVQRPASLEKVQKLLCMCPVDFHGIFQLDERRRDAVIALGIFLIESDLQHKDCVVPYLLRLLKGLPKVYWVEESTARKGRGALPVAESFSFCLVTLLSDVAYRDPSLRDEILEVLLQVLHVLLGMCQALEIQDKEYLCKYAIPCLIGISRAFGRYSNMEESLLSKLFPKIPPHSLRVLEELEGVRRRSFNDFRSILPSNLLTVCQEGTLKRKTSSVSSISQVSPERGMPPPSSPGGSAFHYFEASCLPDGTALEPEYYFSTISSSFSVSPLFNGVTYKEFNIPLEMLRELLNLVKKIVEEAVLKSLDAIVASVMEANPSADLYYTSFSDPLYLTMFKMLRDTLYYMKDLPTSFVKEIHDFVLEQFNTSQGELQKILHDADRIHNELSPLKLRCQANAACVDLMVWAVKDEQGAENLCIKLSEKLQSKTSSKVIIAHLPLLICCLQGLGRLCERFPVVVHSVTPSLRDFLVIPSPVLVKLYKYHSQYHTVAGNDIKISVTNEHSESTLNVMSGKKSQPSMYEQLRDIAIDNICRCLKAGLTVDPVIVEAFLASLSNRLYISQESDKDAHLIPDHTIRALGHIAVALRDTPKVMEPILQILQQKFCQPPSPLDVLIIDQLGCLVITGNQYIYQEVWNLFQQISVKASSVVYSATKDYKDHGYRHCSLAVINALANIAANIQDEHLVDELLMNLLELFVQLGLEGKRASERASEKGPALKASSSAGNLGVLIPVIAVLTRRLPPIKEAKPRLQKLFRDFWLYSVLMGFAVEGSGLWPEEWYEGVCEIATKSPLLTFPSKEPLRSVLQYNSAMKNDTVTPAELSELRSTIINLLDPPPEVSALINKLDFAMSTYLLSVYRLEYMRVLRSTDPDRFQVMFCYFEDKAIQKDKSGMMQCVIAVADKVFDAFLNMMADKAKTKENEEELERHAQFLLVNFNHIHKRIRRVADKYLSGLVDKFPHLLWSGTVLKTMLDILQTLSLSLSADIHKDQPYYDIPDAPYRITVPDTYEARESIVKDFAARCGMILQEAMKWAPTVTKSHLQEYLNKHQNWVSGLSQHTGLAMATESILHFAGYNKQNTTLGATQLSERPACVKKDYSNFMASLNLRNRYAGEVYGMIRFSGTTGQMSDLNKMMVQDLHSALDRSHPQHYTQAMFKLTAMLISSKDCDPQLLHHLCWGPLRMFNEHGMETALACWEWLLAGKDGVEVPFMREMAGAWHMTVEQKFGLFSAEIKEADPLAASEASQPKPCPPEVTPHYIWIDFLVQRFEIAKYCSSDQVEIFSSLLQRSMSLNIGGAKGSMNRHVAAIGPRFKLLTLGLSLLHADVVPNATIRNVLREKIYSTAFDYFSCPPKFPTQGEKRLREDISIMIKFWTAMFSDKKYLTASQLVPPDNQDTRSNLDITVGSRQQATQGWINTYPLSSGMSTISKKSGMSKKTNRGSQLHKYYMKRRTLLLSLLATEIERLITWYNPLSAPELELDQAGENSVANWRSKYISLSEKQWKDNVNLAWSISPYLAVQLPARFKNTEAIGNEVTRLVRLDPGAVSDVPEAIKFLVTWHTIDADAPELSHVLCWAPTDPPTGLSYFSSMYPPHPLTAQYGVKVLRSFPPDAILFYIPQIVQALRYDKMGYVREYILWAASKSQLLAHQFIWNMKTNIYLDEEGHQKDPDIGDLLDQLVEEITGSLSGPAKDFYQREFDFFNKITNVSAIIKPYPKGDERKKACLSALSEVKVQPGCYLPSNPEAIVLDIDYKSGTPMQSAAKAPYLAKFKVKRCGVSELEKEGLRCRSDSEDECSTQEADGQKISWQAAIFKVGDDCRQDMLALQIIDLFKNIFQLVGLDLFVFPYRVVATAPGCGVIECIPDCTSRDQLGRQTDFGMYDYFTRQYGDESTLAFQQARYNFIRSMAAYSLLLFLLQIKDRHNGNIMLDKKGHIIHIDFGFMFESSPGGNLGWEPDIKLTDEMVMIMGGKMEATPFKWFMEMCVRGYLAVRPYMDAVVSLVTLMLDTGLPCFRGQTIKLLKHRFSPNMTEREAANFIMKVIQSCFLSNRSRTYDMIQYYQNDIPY

In the case of `COc1ncc(-c2sc(NC(=O)CC3CCOCC3)nc2C)cc1S(=O)(=O)NC1CCCC(O)C1` (centres unmarked) [Compound S-263], the figures for the pIC50 in assay [1], in assay [2] and in assay [3] were greater than 7.00, 5.00 to 6.00 and 5.00 to 6.00, respectively. Besides, the pEC50 was 7.00 to 9.00 in assay [4] and 5.00 to 6.00 in assay [5].

As a reminder, the pIC50 is the IC50 on a negative log10 scale, so that one unit is a factor of ten. Read a high pIC50 as a low IC50. The term pEC50 denotes the negative decadic logarithm of the EC50, by convention in mol/L.

For the origin of these results see US10428060B2, “PI-kinase inhibitors with anti-infective activity” (The Board of Trustees of the Leland Stanford Junior …, priority 2011, dated 2019).
